Measurements as given in patent US20030113330A1, “Methods for treating pulmonary fibrosis” (priority 1999, published 2003).
Read-outs that look alike come from different tables or passages of the source.

Assays:
[1] = test system: A549 cells
Protocol: (§1) The human lung adenocarcinoma cell line A549 (ATCC) was cultured in Ham's F12 medium supplemented with 10% fetal bovine serum (FBS). Primary alveolar epithelial cells were isolated from adult male Wistar rats. The primary cells were studied at day two of culture, a time at which they are type II cell-like by accepted morphologic and biochemical criteria. […] All cells were seeded in 24-well or 6-well chambers, and all experiments were conducted at subconfluent densities of 80-90% in serum-free Ham's F12 medium. Test reagents were diluted with Ham's F12 medium and were applied for 20 hours at 37C. in a 5% CO2 incubator.
(§2) Apoptotic cells were detected using propidium iodide (PI) following digestion of ethanol-fixed cells with DNAse-free RNAse in PBS containing 5 ug/ml PI. […] In replicate culture vessels, necrosis was detected as the loss of exclusion of PI after application of the vital dye directly to the cell culture medium at 5 ug/ml final concentration. Red fluorescent (PI-POSITIVE) cells (>570 nm) were scored over the subsequent hour as a percentage of the total cells in any given field. A minimum of 4 separate fields were scored in each of three separate culture vessels per experiment condition; all experiments were performed at least twice and the data were compiled. Although all necrotic cells are PI-positive, some apoptotic cells may also take up the dye but these comprise a minor fraction of the total dead cell population.
(§3) In all assays, detached cells were retained by centrifugation of the culture vessel at 300×g for 10 minutes with a centrifuge rotor designed for culture plates. For detection of necrosis (dye exclusion of PI), the PI was added directly to the cell culture medium immediately before centrifugation of the culture vessel. For detection of apoptosis, ethanol was added directly to the cell culture medium to a final concentration of 70% immediately before the centrifugation. Afterward, the ethanol was carefully removed and the total cell population (attached plus sedimented detached cells) were stained with PI as described above.

[2] = test system: primary rat AEC
Protocol: as §1, §2, §3

[3] = test system: primary rat AECs; assay: TNF-α-induced apoptosis of primary rat AECs; type: cell-based; settings: purified TNF-α
[4] = test system: primary rat AEC; assay: Fas ligand-induced apoptosis of primary rat alveolar epithelial cells; type: cell-based; settings: captopril, lisinopril 500 ng/ml; caspase inhibitors 60 uM
Protocol: Lung Cell Isolation and Detection of Apoptosis In Vitro. Primary alveolar epithelial cells (AEC) were isolated from adult male Wistar rats as described above. The primary cells were studied at day two of culture, a time at which they are type II cell-like by accepted morphologic and biochemical criteria, see Paine et al., Am. J. Physiol. […] All cells were seeded in 24-well or 6-well chambers, and all experiments were conducted at subconfluent densities of 80-90% in serum-free Ham's F12 medium. Test reagents were diluted with Ham's F12 medium and were applied for 20 hours at 37° C. in a 5% CO2 incubator.
Detection of apoptotic cells with propidium iodide (PI) was conducted as described above, following digestion of ethanol-fixed cells with DNAse-free RNAse in PBS containing 5 ug/ml PI.
Expression of FAS by alveolar epithelial cells is observed during bleomycin-induced fibrogenesis in mice. See Hagimoto, et al., Am. J. Respir. Cell Mol. Biol. 16:91-101 (1997). […] Apoptosis was detected by quantitation of fragmented nuclei (see above).
Cell Culture and Detection of Apoptosis. The human lung adenocarcinoma cell line A549 was obtained from American Type Culture Collection and cultured in Ham's F12 medium supplemented with 10% fetal bovine serum (FBS). Primary alveolar epithelial cells were isolated from adult male Wistar rats as described earlier (Uhal, B. D., I. Joshi, A. True, S. Mundle, A. Raza, A. Pardo and M. Selman. Fibroblasts isolated after fibrotic lung injury induce apoptosis of alveolar epithelial cells in vitro. Am. J. Physiol. 269:L819-L828, 1995); Wang, R., A. Zagariya, 0. Ibarra-Sunga, C. […] Am. J. Physiol. 276:L885-L889 (1999)). […] All cells were seeded in 24-well or 6-well chambers, and all experiments were conducted at subconfluent densities of 80-90% in serum-free Ham's F12 medium. Test reagents were diluted with serum-free Ham's F12 medium and were applied under serum-free conditions for 20 hours at 37C. in a 5% CO2 incubator. Detection of apoptotic cells with propidium iodide (PI) was conducted as described above Am. J. Physiol. 275:L1013-1017 (1998); Uhal et al., following digestion of ethanol-fixed cells with DNAse-free RNAse in PBS containing 5 μg/ml PI. In all assays, detached cells were retained by centrifugation of the culture vessels during fixation with 70% ethanol, or by retention of culture media and recovery by centrifugation before assay.
Apoptosis was detected by nuclear fragmentation as described above.

[5] = test system: primary rat AEC; assay: Angiotensin II-induced apoptosis in primary rat AEC (nuclear fragmentation, PI); type: cell-based; settings: ANGII 5.0 uM; saralasin 50 ug/ml, lisinopril 500 ng/ml
Source text: Cell Culture. The human lung adenocarcinoma cell line A549 was obtained from American Type Culture Collection and cultured in Ham's F12 medium supplemented with 10% fetal bovine serum (FBS). Primary alveolar epithelial cells were isolated from adult male Wistar rats as described in Uhal et al., Am. J. Physiol. Suppl. (Oct.) 261:110-117 (1991) and Uhal et al., Am. J. Physiol. 269:L819-L828 (1995). The primary cells were studied at day two of culture, a time at which they are type II cell-like by accepted morphologic and biochemical criteria, see Uhal, Am. J. Physiol. 272:L1031-L1045 (1997). […] J. Physiol. Suppl. (October) 261:110-117 (1991). All cells were seeded in 24-well or 6-well chambers, and all experiments were conducted at subconfluent densities of 80-90% in serum-free Ham's F12 medium. Test reagents were diluted with Ham's F12 medium and were applied for 20 h at 37° C. in a 5% CO2 incubator.
Detection of Apoptosis. Detection of apoptotic cells with propidium iodide (PI) was conducted as described in Uhal, et al., Am. J. Physiol. 275:L1013-1017 (1998) following digestion of ethanol-fixed cells with DNAse-free RNAse in PBS containing 5 ug/ml PI. Assay of Annexin V binding by flow cytometry was performed essentially as described for human lung fibroblasts in Uhal, et al., Am. J. Physiol. 275:L998-L1005 (1998) after trypsinization of cells from culture vessels. Assay of Caspase-3 activity was performed on viable suspension cultures as reported in Uhal, et al., Am. J. Physiol. 275:L1013-1017 (1998). In all assays, detached cells were retained by centrifugation of the culture vessels during fixation with 70% ethanol, or by retention of culture media and recovery by centrifugation before assay.
(§4) For microscopy, cells were cultured on glass cover slips, incubated with test reagents and fixed with 70% ethanol. The fixed cells were immunolabeled overnight at 4° C. with monoclonal antibodies to cytokeratins 7 and 19 (Chemicon International, Temecula, Calif.), and then for one hour at 37° C. with anti-mouse IgG-rhodamine and DNAse-free RNAse (Boehringer Mannheim, Indianapolis, Ind.) The cover slips were then rinsed in distilled water three times and mounted under Fluoromount Solution (Southern Biotechnology Associates, Birmingham, Ala.) containing 5 ug/ml propidium iodide. Photomicroscopy was performed as described in Uhal, et al., Am. J. Physiol. 275:L1013-1017 (1998).
Apoptosis in alveolar epithelial cells was quantitated by fluorescence detection of chromatin condensation and nuclear fragmentation in alcohol-fixed cells stained with propidium iodide. See Uhal, et al., Am. J. Physiol. 275:L1013-1017 (1998). […] After 20 h, the culture vessel was centrifuged to retain detached cells and labeled with anticytokeratin antibodies and propidium iodide. […] Double labeling with PI and monoclonal antibodies to cytokeratins 7 and 19 identified cells with both apoptotic nuclear morphology and positive anticytokeratin immunoreactivity.

[6] = test system: primary rat AEC; assay: Amiodarone-induced net cell loss in primary rat AEC cultures; type: cell-based; settings: 20 hours exposure
Protocol: (§6) Primary alveolar epithelial cells were isolated from adult male Wistar rats. The primary cells were studied at day two of culture, a time at which they are type II cell-like by accepted morphologic and biochemical criteria. All primary cell preparations were of better than 90% purity assessed by acridine orange staining. All cells were seeded in 24-well or 6-well chambers, and all experiments were conducted at subconfluent densities of 80-90% in serum-free Ham's F12 medium. Test reagents were diluted with Ham's F12 medium and were applied for 20 hours at 37C. in a 5% CO2 incubator.
(§7) Importantly, unattached cells were recovered and included in the analyses, and thus the data represent true loss of cells rather than simple detachment from the substratum.

[7] = test system: primary cultures of rat AEC; type: cell-based; settings: primary rat AEC, 20 h
Protocol: (§8) The human lung adenocarcinoma cell line A549 (ATCC) was cultured in Ham's F12 medium supplemented with 10% fetal bovine serum (FBS). Primary alveolar epithelial cells were isolated from adult male Wistar rats. The primary cells were studied at day two of culture, a time at which they are type II cell-like by accepted morphologic and biochemical criteria. All primary cell preparations were of better than 90% purity assessed by acridine orange staining. All cells were seeded in 24-well or 6-well chambers, and all experiments were conducted at subconfluent densities of 80-90% in serum-free Ham's F12 medium. Test reagents were diluted with Ham's F12 medium and were applied for 20 hours at 37C. in a 5% CO2 incubator.

[8] = test system: human A549 cells; type: cell-based; settings: A549, 20 h
Protocol: as §8
Apoptotic cells were detected using propidium iodide (PI) following digestion of ethanol-fixed cells with DNAse-free RNAse in PBS containing 5 ug/ml PI. […] In replicate culture vessels, necrosis was detected as the loss of exclusion of PI after application of the vital dye directly to the cell culture medium at 5 ug/ml final concentration. Red fluorescent (PI-POSITIVE) cells (>570 nm) were scored over the subsequent hour as a percentage of the total cells in any given field. A minimum of 4 separate fields were scored in each of three separate culture vessels per experiment condition; all experiments were performed at least twice and the data were compiled. […]

[9] = test system: A549 cells; assay: Amiodarone-induced net cell loss in A549 cultures; type: cell-based, human; settings: 20 hours exposure
Protocol: as §6, §7

[10] = AIPT; cited from earlier work
[11] = test system: A549 cell line; assay: Angiotensinogen-induced apoptosis in A549 cells; type: cell-based, human
Protocol: Cell Culture. […] J. Physiol. Suppl. (Oct.) 261:110-117 (1991) and Uhal et al., Am. J. Physiol. 269:L819-L828 (1995). […] J. Physiol. 272:L1031-L1045 (1997). […] J. Physiol. Suppl. (October) 261:110-117 (1991).
(§5) Detection of Apoptosis. […] J. Physiol. […] Assay of Annexin V binding by flow cytometry was performed essentially as described for human lung fibroblasts in Uhal, et al., Am. J. Physiol. 275:L998-L1005 (1998) after trypsinization of cells from culture vessels. Assay of Caspase-3 activity was performed on viable suspension cultures as reported in Uhal, et al., Am. J. Physiol. 275:L1013-1017 (1998).
as §4

[12] = test system: primary rat AEC; assay: Angiotensinogen-induced apoptosis in primary rat AEC; type: cell-based; settings: 5 uM
Protocol: Cell Culture. […] J. Physiol. Suppl. […] J. Physiol. […] J. Physiol. […] J. Physiol. Suppl.
as §5, with “275:L998-L1005 (1998) after trypsinization of cells from culture vessels.” left out, “Physiol.” for “Physiol. 275:L1013-1017 (1998).”
as §4, with “Physiol.” for “Physiol. 275:L1013-1017 (1998).”

In the case of `CCCCc1nc(Cl)c(CO)n1Cc1ccc(-c2ccccc2-c2nn[nH]n2)cc1` [Losartan, losartan], the “inhibition of amiodarone-induced apoptosis” value ([1]; captopril 500 ng/ml, saralasin 50 ug/ml, Losartan 5 pg/ml) is reported as “completely blocked”, the “inhibition of amiodarone-induced apoptosis” value ([2]; captopril 500 ng/ml, saralasin 50 ug/ml, Losartan 5 pg/ml, amiodarone 2.5 ug/ml for chelerythrine, orthovanadate) is reported as “completely blocked” and the “inhibition of TNF-α-induced apoptosis” value [3] is reported as “abrogated”. The “inhibition of Fas ligand-induced apoptosis of primary rat AEC (words)” value [4] was “abrogated” and the “inhibition of ANGII-induced apoptosis of primary rat AEC” value [5] was “abrogated”.

In the case of `CCCCc1oc2ccccc2c1C(=O)c1cc(I)c(OCCN(CC)CC)c(I)c1` [amiodarone], the “maximum increase in apoptotic cells” value ([1]; 10 ug/ml AM, 5 ug/ml DES) is reported as 10 fold, the “concentration at which apoptosis begins” value ([1]; A549) is reported as 10000 ng/mL and the induction of apoptosis ([2]; 15 ug/ml AM, 5 ug/ml DES) is reported as 16 fold. The “concentration at which significant apoptosis begins” value ([2]; primary AEC) was 2500 ng/mL, the “effect on total cell number” value [6] was “significantly decreased” and the “concentration at which significant cell death / toxicity begins” value [7] was 2500 ng/mL. The “concentration at which significant cell death / toxicity begins” value ([7]; listed as AM) was 1000 ng/mL, the “concentration at which necrosis / significant cell death begins” value [8] was 10000 ng/mL and the “effect on total cell number” value [9] was “significantly decreased”. The “estimated mortality of affected patients” value [10] was 5 to 10%.

B1: angiotensinogen: purified angiotensinogen, serum globulin precursor of angiotensin I (protein, UniProt P01019 25-476, looked up)
Angiotensinogen: DRVYIHPFHLVIHNESTCEQLAKANAGKPKDPTFIPAPIQAKTSPVDEKALQDQLVLVAAKLDTEDKLRAAMVGMLANFLGFRIYGMHSELWGVVHGATVLSPTAVFGTLASLYLGALDHTADRLQAILGVPWKDKNCTSRLDAHKVLSALQAVQGLLVAQGRADSQAQLLLSTVVGVFTAPGLHLKQPFVQGLALYTPVVLPRSLDFTELDVAAEKIDRFMQAVTGWKTGCSLMGASVDSTLAFNTYVHFQGKMKGFSLLAEPQEFWVDNSTSVSVPMLSGMGTFQHWSDIQDNFSVTQVPFTESACLLLIQPHYASDLDKVEGLTFQQNSLNWMKKLSPRTIHLTMPQLVLQGSYDLQDLLAQAELPAILHTELNLQKLSNDRIRVGEVLNSIFFELEADEREPTESTQQLNKPEVLEVTLNRPFLFAVYDQSATALHFLGRVANPLSTA
For B1, the “induction of apoptosis by angiotensinogen” value [11] was “not capable of inducing apoptosis” and the “induction of apoptosis by angiotensinogen” value [12] was “induced apoptosis with the same potency as did ANGII”.
